For orientation: % Inhibition means the relative decrease from the control value, in per cent.

Four substances from paper PMC10254233, “Synthesis and In Vitro Biological Evaluation of p-Carborane-Based Di-tert-butylphenol Analogs” (Molecules, 2023) can be followed below.

The target of one data set is T1, ovine COX-1 (Ovis aries, UniProt P05979).
T1 construct: purchased Cayman Chemical Company
T1 sequence (P05979 25-600): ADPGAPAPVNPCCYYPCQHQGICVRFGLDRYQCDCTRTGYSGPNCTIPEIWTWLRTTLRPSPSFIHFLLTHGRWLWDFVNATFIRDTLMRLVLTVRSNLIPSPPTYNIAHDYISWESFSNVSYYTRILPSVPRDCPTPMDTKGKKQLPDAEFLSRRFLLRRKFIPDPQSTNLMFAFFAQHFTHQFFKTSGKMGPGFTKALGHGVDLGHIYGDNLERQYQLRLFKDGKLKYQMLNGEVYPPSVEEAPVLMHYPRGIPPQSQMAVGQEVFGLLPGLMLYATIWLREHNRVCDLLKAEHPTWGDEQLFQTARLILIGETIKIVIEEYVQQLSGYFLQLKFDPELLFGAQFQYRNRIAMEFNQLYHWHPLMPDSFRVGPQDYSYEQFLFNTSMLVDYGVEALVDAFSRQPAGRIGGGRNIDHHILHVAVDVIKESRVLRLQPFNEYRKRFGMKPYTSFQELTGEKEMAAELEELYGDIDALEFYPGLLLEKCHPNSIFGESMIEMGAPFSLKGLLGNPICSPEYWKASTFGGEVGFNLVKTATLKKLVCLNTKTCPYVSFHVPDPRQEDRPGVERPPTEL
Nature of the data set: COX Fluorescent Inhibitor Screening Assay, COX-1. The class given is biochemical. The settings on record: in duplicate. The procedure:
COX inhibition activity against ovine COX-1 and human COX-2 was determined using the fluorescence-based COX assay COX Fluorescent Inhibitor Screening Assay Kit (Cayman Chemical Company, Ann Arbor, MI, USA) according to the manufacturer’s instructions as previously reported by us. All compounds were screened at a concentration of 100 µM in duplicate.

The test system of data set [1] is primary peritoneal exudate cells. The data set is described as follows: Viability of primary peritoneal exudate cells, CV assay. Particulars: 72 h, cells from healthy mice. In kind it is cell-based.
Description: All cells were kept at 37 °C in a humidified atmosphere with 5% CO2.
Primary peritoneal exudates cells (PEC) isolated from C57BL/6 mice were used to estimate the selec-
Mice were obtained from the animal facility at the Institute for Biological Research “Siniša Stanković” - National Institute of the Republic of Serbia, University of Belgrade (Belgrade, Serbia). PEC were cultivated in HEPES-buffered (HEPES = 4-
5% heat-inactivated fetal bovine serum (FBS) and antibiotics under standard growth conditions (37 °C, 5% CO2). For viability determination cells were seeded at a density of 2 x 10^5 cells/well in 96-well plates.
Non-adherent cells were removed two hours after seeding and treatment was applied. Cell viability was determined after 72 h using a crystal violet (CV) assay.
the indicated concentrations for 72 h. Cell viability was determined by the CV test. The data are presented as a mean ± SD from one repre-
sentative out of three independent experiments. *p<0.05 refer to untreated cultures.
For data set [2], the system named is HCT116 cells. The data set is described as follows: ROS/RNS generation, DHR 123 staining. The class given is cell-based, human. Particulars: HCT116, IC50 dose, 72 h. The source says: Apostat staining confirmed that apoptosis was in correlation with the activation of caspases (Figure 3C). […] The […] production of reactive oxygen species explains the observed effects of the applied treatments, namely inhibition of proliferation and induction of apoptosis (Figure 3E). It is widely accepted that drug-mediated hyperproduction of reactive oxygen species that are not buffered by cellular anti-oxidative protection is responsible for cell death induction. […] The described feature is acquired during disease progression, and it is tightly connected with abnormal blood supply and a hypoxic microenvironment. Therefore, elimination of these molecules results in a rapid decrease in cell viability. […]
(§1) Finally, after 72 h incubation, cells were washed, tryp-sinized, and analyzed using flow cytometry (CyFlow® Space Partec using the PartecFloMax® software […]
(§2) (30 µM) and R-830-Cb (50 µM)). […] Finally, for covering the slides fluorescent mounting medium was used and slides were ana-lyzed with Zeiss AxioObserver Z1 inverted fluorescence microscope (Carl Zeiss AG, Oberkochen, Ger-many) at 400 x magnification.
(§3) 1.1.5. Evaluation of the role of detected autophagy
(§4) Concomitant treatment of R-830-Cb and autophagy inhibitors chloroquine and 3-MA was performed to determine the nature of detected autophagy. […] Cell viability was evaluated using CV assay after 72 h. […]

Data set [3] deals with HCT116 cells. The data set is described as follows: Co-treatment with autophagy inhibitors, CV assay. The class given is cell-based, human. Particulars: HCT116, 50 µM with 20 µM chloroquine or 1 mM 3-MA, 72 h.
Description: This means that the cytotoxic activity of the tested drug is enhanced by the inhibition of autophagy.
(G) HCT116 cells were co-treated with R-830-Cb and 3-methyladenine (3-MA) or chloroquine and viability was estimated by crystal violet (CV) assay. * p < 0.05; *** p < 0.001 in comparison to relevant control.
1.1.3. Measurement of reactive oxygen and nitrogen species (ROS/RNS) generation Dihydrorhodamine 123 (DHR) staining was used for detection of production of ROS/RNS species.
as §1
1.1.4. PI staining on chamber slides […]
as §2, §3, §4
Finally, after 72 h incubation, cells were tripsynized, washed, resuspended in PBS, and analyzed by flow cytometry (CyFlow® Space Partec using the PartecFloMax® software (Munster, Germany)).

Data set [4] concerns HCT116 cells. The data set is described as follows: Cell proliferation assay (CFSE staining). In kind it is cell-based, human. Particulars: HCT116, IC50 dose, 72 h, compared to R-830.

Turning to “(3E)-1-Hydroxy-12-(methylene-[dihydrofurane-2′(3H)-one])-1,12-dicarba-closo-dodecaborane(12) [KME-4-Cb]”, at ovine COX-1, the “% Inhibition at 100 µM COX-1” value was found to be 26%.

In the case of “(3E)-1-Hydroxy-12-(methylene-[1′-methoxypyrrolidine-2′-one])-1,12-dicarba-closo-dodecaborane(12) [Compound E-5110-Cb]”, the “% Inhibition at 100 µM COX-1” value at ovine COX-1 was “n.i. (n.i. = no inhibition (%inhibition below 5%))”.

With “1-Hydroxy-12-(thiophen-2′-carbonyl)-1,12-dicarba-closo-dodecaborane(12) [Compound R-830-Cb]”, the “% Inhibition at 100 µM COX-1” value on ovine COX-1 turned out to be 18%. Moreover, in data set [1], the “viability of primary peritoneal exudate cells” value is recorded as “completely non-toxic in the applied dose range”. Moreover, the “reactive oxygen species production” value in the data set with HCT116 cells [2] was “potent inhibition of ROS”. Moreover, the “cell viability on co-treatment with chloroquine or 3-MA” value in the data set on HCT116 cells [3] is reported as “suppression of the autophagy process caused a drug-induced decrease in cell viability”. In addition, the “cell division (CFSE)” value in the data set with HCT116 cells [4] was “more severely affected”.

For “(3E)-1-Hydroxy-12-(methylene-[2′-ethylisothiazolidine-1′,1′-dioxide])-1,12-dicarba-closo-dodecaborane(12) [Compound S-2474-Cb]”, at ovine COX-1, the “% Inhibition at 100 µM COX-1” value is on record as “n.i. (n.i. = no inhibition (%inhibition below 5%))”.
